Measured values as given in the OPERA property sets (Mansouri et al. 2018).

Details: not given

| Compound | boiling point [°C] | log10 vapour pressure (mmHg) | melting point [°C] | ready biodegradability | log10 Henry constant (atm·m³/mol) | log10 Koc (L/kg) | log10 biodegradation half-life (days) | log10 Koa |
| --- | --- | --- | --- | --- | --- | --- | --- | --- |
| FCCF | 30.7 | 2.79 | – | – | – | – | – | – |
| O=C1c2ccccc2C(=O)c2cc(Cl)ccc21 | – | – | 211 | not readily biodegradable | – | – | – | – |
| CCCC=CCC=O | 151 | – | – | – | – | – | – | – |
| O=[N+]([O-])c1ccccc1-c1ccccc1[N+](=O)[O-] | 305 | – | 126 | – | – | – | – | – |
| Oc1ccccc1C(F)(F)F | 148 | – | 45.5 | – | – | – | – | – |
| Cc1cccc2cc[nH]c12 | 266 | – | 85 | – | – | – | – | – |
| Nc1ccc(N)cc1 | 267 | – | 146 | not readily biodegradable | – | – | – | – |
| CC=C(C)Br | 99.8 | – | – | – | – | – | – | – |
| Cc1cc(=O)[nH]o1 | – | -2.86 | 86.5 | – | – | – | – | – |
| CCCCCCCCCCCCCC(=O)O | 326 | -5.85 | 53.9 | – | – | – | – | – |
| COC(=O)[C@@H]1[C@H]2C[C@H]3c4[nH]c5ccccc5c4CCN3C[C@@H]2CC[C@@H]1O | – | – | 251 | – | – | – | – | – |
| CC(CCc1ccccc1)NCC(O)c1ccc(O)c(C(N)=O)c1 (stereo not drawn) | – | – | 188 | – | – | – | – | – |
| CC(C)NCC(O)COc1cccc2ccccc12.Cl (stereo not drawn) | – | – | 164 | – | – | – | – | – |
| CCCCCCCCCCCCCCN | 291 | -3.01 | 83.1 | – | – | – | – | – |
| CCC(C)(C)O | 102 | 1.22 | -9.1 | not readily biodegradable | -4.86 | – | – | – |
| CN[C@@H](C)[C@@H](O)c1ccccc1 | – | – | 90.5 | – | – | – | – | – |
| C#CC(C)(CC)OC(N)=O (stereo not drawn) | – | – | 55.8 | – | – | – | – | – |
| Clc1cc(Cl)cc(Br)c1 | 232 | – | 83 | – | – | – | – | – |
| COC(=O)c1cc(Oc2ccc(Cl)cc2Cl)ccc1[N+](=O)[O-] | – | -7 | 85 | – | – | 4 | – | – |
| CN(c1ccccc1)c1ccccc1 | 294 | -2.51 | -7.5 | – | – | – | – | – |
| CCCCCCCCCCCCCCCC/C=C/C1CC(=O)OC1=O (stereo not drawn) | – | – | – | not readily biodegradable | – | – | – | – |

| Compound | boiling point [°C] | log10 vapour pressure (mmHg) | melting point [°C] | ready biodegradability | log10 Henry constant (atm·m³/mol) | log10 Koc (L/kg) | log10 biodegradation half-life (days) | log10 Koa |
| --- | --- | --- | --- | --- | --- | --- | --- | --- |
| FC(Cl)C(Cl)(Cl)Cl (stereo not drawn) | 116 | – | -95.3 | – | – | – | – | – |
| CCCCC(C)CCC (stereo not drawn) | 142 | 0.835 | -113 | – | – | – | 0.699 | – |
| CC(=O)Oc1ccc(C(=O)O)cc1 | – | – | 192 | – | – | – | – | – |
| C=CC[N+](=O)[O-] | 128 | – | – | – | – | – | – | – |
| Cc1ccc(C)c2occc12 | 216 | – | – | – | – | – | – | – |
| OC[C@@H](O)[C@H]1O[C@@H]2O[C@H](C(Cl)(Cl)Cl)O[C@@H]2[C@H]1O | – | – | 183 | – | – | – | – | – |
| CC(=O)Nc1ccc(CC(=O)O)cc1 | – | – | 173 | – | – | – | – | – |
| C=CC[C@@H](C)CC | 86.7 | 1.87 | -142 | – | – | – | – | – |
| CC(C)(C)CCO | 143 | 0.389 | -60 | – | – | – | – | – |
| CCCC#CCCCC(=O)O | – | – | -3 | – | – | – | – | – |
| O=C(CO)[C@@H](O[C@H]1O[C@H](CO)[C@@H](O)[C@H](O)[C@H]1O)[C@H](O)[C@H](O)CO | – | – | 168 | – | – | – | – | – |
| O=Cc1ccccc1O | 197 | -0.227 | -7 | – | – | – | – | – |
| CCOC(=O)c1cccc(C(=O)OCC)c1 | 302 | – | 11.5 | – | – | – | – | – |
| CNC(N)=S | – | – | 120 | – | – | – | – | – |
| CCN(CC)CCOc1ccc2nc(N(C)C)sc2c1.Cl.Cl | – | – | 242 | – | – | – | – | – |
| O=C(O)c1ccc2c(c1)OCO2 | – | – | 229 | – | – | – | – | – |
| O=C[O-].[K+] | – | – | 167 | – | – | – | – | – |
| Brc1ccc(I)cc1 | 252 | – | 92 | – | – | – | – | – |
| O=[N+]([O-])c1cccc([N+](=O)[O-])c1Cl | 315 | – | 88 | – | – | – | – | – |
| C[C@]12CC[C@H](O)C[C@H]1CC[C@@H]1[C@@H]2CC[C@]2(C)[C@@H](C3=CC(=O)OC3)CC[C@]12O | – | – | 253 | – | – | – | – | – |
| CC(N)=S | – | – | 116 | not readily biodegradable | – | 0.78 | – | – |

| Compound | boiling point [°C] | log10 vapour pressure (mmHg) | melting point [°C] | ready biodegradability | log10 Henry constant (atm·m³/mol) | log10 Koc (L/kg) | log10 biodegradation half-life (days) | log10 Koa |
| --- | --- | --- | --- | --- | --- | --- | --- | --- |
| O=CC(=O)O | – | – | – | readily biodegradable | – | – | – | – |
| CC(C)=NO | 136 | – | 61 | – | – | – | – | – |
| C=CCCCCCCCCCC | 214 | -0.797 | -35.2 | – | – | – | – | – |
| CC(=O)OCC(=O)[C@@]1(O)[C@H](OC(C)=O)C[C@H]2[C@@H]3CCC4=CC(=O)C=C[C@]4(C)[C@@]3(F)[C@@H](O)C[C@@]21C | – | – | 235 | – | – | – | – | – |
| Clc1ccc(-c2c(Cl)cc(Cl)c(Cl)c2Cl)c(Cl)c1 | – | – | 73 | – | – | – | – | – |
| C[C@@H]1C[C@H]2CC[C@H](O2)[C@H](C)C(=O)O[C@@H](C)C[C@@H]2CC[C@@H](O2)[C@@H](C)C(=O)O[C@H](C)C[C@H]2CC[C@H](O2)[C@H](C)C(=O)O[C@@H](C)C[C@@H]2CC[C@@H](O2)[C@@H](C)C(=O)O1 | – | – | 148 | – | – | – | – | – |
| Nc1cccc(Oc2ccccc2)c1 | 315 | – | 37 | – | – | – | – | – |
| COc1ccc2[nH]c3c(c2c1)CCNC3C (stereo not drawn) | – | – | 150 | – | – | – | – | – |
| CCCCCC(C)(C)C | 133 | 1.03 | -113 | – | – | – | 0.778 | – |
| Brc1ccncc1 | – | – | 0.5 | – | – | – | – | – |
| CCC1C=CCCC1 (stereo not drawn) | 134 | – | – | – | – | – | – | – |
| ClCC(Cl)(Cl)Cl | 130 | 1.08 | -70.2 | – | -2.6 | – | – | – |
| Oc1ccc(-c2ccc(O)cc2)cc1 | – | – | 283 | not readily biodegradable | – | – | – | – |
| N#CCCCCl | 192 | – | – | – | – | – | – | – |
| CC(C)(COCc1cccc(Oc2ccccc2)c1)c1ccc(OC(F)(F)Br)cc1 | – | -8.23 | – | – | – | – | – | – |
| O=CC[C@@H](O)C(O)[C@H](O)CO (stereo in doubt) | – | – | 146 | – | – | – | – | – |
| CCCC(Br)C(=O)OCC (stereo not drawn) | 191 | – | – | – | – | – | – | – |
| CCOc1ccccc1[N+](=O)[O-] | 267 | – | 2.2 | – | – | – | – | – |
| C=CCC1(C2C=CCCC2)C(=O)NC(=S)NC1=O (stereo not drawn) | – | – | 149 | – | – | – | – | – |
| CC(C)=CCC[C@@H](C)[C@H]1CC[C@@]2(C)C3=C(CC[C@]12C)[C@@]1(C)CC[C@H](O)C(C)(C)[C@@H]1CC3 | – | – | 140 | – | – | – | – | – |
| ClC(c1ccccc1)c1ccccc1 | – | – | 16 | – | – | – | – | – |

| Compound | boiling point [°C] | log10 vapour pressure (mmHg) | melting point [°C] | ready biodegradability | log10 Henry constant (atm·m³/mol) | log10 Koc (L/kg) | log10 biodegradation half-life (days) | log10 Koa |
| --- | --- | --- | --- | --- | --- | --- | --- | --- |
| COC(=O)C1C2C=CC(C2)C1C(=O)OC (stereo not drawn) | – | – | 38 | – | – | – | – | – |
| CCCCC(CC)CN1C(=O)C2C3C=CC(C3)C2C1=O (stereo not drawn) | – | -4.74 | – | – | – | – | – | – |
| NC(=O)Oc1ccccc1 | – | – | 150 | – | – | – | – | – |
| C=CCCCCCC=C | 142 | – | – | – | – | – | – | – |
| CCCCC[C@H](O)/C=C/[C@H]1[C@H](O)CC(=O)[C@@H]1C/C=C\CCCC(=O)O | – | – | 67 | – | – | – | – | – |
| Brc1c2ccccc2c(Br)c2ccccc12 | – | – | 226 | – | – | – | – | – |
| Clc1cc(Cl)c2c(Cl)cccc2c1Cl | – | – | – | – | – | – | – | 8.58 |
| CCCCCCCCCC#N | 243 | – | -17.9 | – | – | – | – | – |
| ClC(Cl)(Cl)C1CO1 (stereo not drawn) | 149 | – | – | – | – | – | – | – |
| O=C(O)[C@@H](O)[C@H](O)[C@H](O)[C@@H](O)C(=O)O | – | – | 126 | – | – | – | – | – |
| CCNC(=O)NCC | 263 | – | 112 | – | – | – | – | – |
| NNC(=O)c1ccccc1 | – | – | 115 | – | – | – | – | – |
| [C-]#[N+]CCCC | 120 | – | – | – | – | – | – | – |
| CN(C)C(=O)Nc1ccc(Cl)cc1 | – | -6.3 | 170 | – | – | 1.95 | – | – |
| O=C([O-])c1ccccc1.[NH4+] | – | – | 194 | – | – | – | – | – |
| CC(CC=O)CCCC(C)(C)O (stereo not drawn) | 241 | – | – | – | – | – | – | – |
| CCOP(=S)(OCC)SCS(=O)C(C)(C)C (stereo not drawn) | – | – | – | – | – | 2.18 | – | – |
| Clc1ccc(C(c2ccc(Cl)cc2)C(Cl)(Cl)Cl)cc1 | – | -6.8 | 108 | not readily biodegradable | -5.08 | 5.31 | – | 9.82 |
| CCOO | 95 | – | -100 | – | -5.53 | – | – | – |
| O=C(O)c1c(F)ccc(F)c1F | – | – | 130 | – | – | – | – | – |
| C=C1COC2(OCCCO2)OC1 | – | – | – | not readily biodegradable | – | – | – | – |

Same assay, conditions: fish

| Compound | log10 BCF | log10 biotransformation half-life (days) |
| --- | --- | --- |
| O=C1c2ccccc2C(=O)c2cc(Cl)ccc21 | 2.28 | -0.36 |
| C=CCCCCCCCCCC | – | 0.83 |
| Clc1ccc(C(c2ccc(Cl)cc2)C(Cl)(Cl)Cl)cc1 | 4.29 | 1.93 |
